Tests used:
[1] = test system: wild-type GCR1 ("wt") BY-2 cells; assay: Thymidine incorporation in synchronized BY-2 cells, wild-type GCR1; type: cell-based, tobacco (Nicotiana tabacum); conditions: 3 μM and 10 μM ABA; BY-2 cells with wild-type GCR1; measured over time; FIG. 11A
Protocol: (§1) Agrobacterium tumefaciens were transformed with the pMON-GCR1 plasmid and used to produce transgenic BY-2 cell lines. BY-2 cells were transformed according to the method disclosed in An, G. Plan Physiol. 79, 568-570 (1985). The selected transgenic alli were grown in the dark on selective medium at the 24° C. and transferred to fresh medium every 4 week. Liquid cultures were obtained for the different transgenic lines and synchronization was achieved by a 24-h subculture in 5 mg/liter aphidicolin. See, Combettes, B. et al., Methods Cells Sci., 21, 109-121 (1991).
(§2) DNA synthesis is measured by incubating 1 ml samples of the synchronized cell suspension with 1 μCi of [^3H] thymidine for 20 minutes at 27° C. in Eppendorf microtubes with gentle shaking. Cells were collected by centrifugation for 5 minutes at 1,800× g, and the pellet was frozen in dry ice. DNA was extracted with Plant DNAzol Reagent (GIBCO/BRL), resuspended in water, and the [^3H] radioactivity was determined with a scintillation counter.
(§3) To determine the effect of the non-endogenous, constitutively activated version of GCR1, […], on the cell cycle, control cell (empty vector), wild-type GCR1 (“wt”) and R271P overexpressing BY-2 cells were synchronized with aphidicolin for 24 h, and, after removal of the cell cycle blocker, thymidine incorporation was measured. (See, FIG. 10). […]

[2] = test system: non-endogenous, constitutively activated version of GCR1, R271P, BY-2 cells; assay: Thymidine incorporation in synchronized BY-2 cells, constitutively activated GCR1 R271P; type: cell-based, tobacco (Nicotiana tabacum); conditions: 3 μM and 10 μM ABA; BY-2 cells with R271P GCR1; measured over time; FIG. 11B
Protocol: as §1, §2, §3

## CC1=CC(=O)CC(C)(C)C1(O)/C=C/C(C)=C\C(=O)O (centres unmarked) [ABA, Abscissic Acid]
[1]
  thymidine incorporation (DNA synthesis): decreases thymidine incorporation
[2]
  thymidine incorporation (DNA synthesis): not affected

From US20030073812A1, “Non-endogenous, constitutively activated versions of plant G protein-coupled receptor: GCR1” (priority 2001, published 2003)
